Tested on: GTPase KRas (Homo sapiens), P01116 [G12C]
Assay: Binding affinity to His-tagged KRAS (1 to 169 residues) G12C mutant (unknown origin) at 10 to 100 uM after 24 hrs by mass spectrometric method

Row | SMILES | Activity [%]
1 | C=CC(=O)NC[C@H]1C[C@@H]2O[C@H](COCc3ccccc3)[C@@H](OCc3ccccc3)[C@@H]2O1 | 0.5 to 5
2 | C=Cc1ccccc1S(=O)(=O)NCCNc1ccc2ccccc2c1 | 10 to 15
3 | C=Cc1ccc(S(=O)(=O)NCCNc2ccc3ccccc3c2)cc1 | 5 to 10
4 | C=Cc1cccc(S(=O)(=O)NCCOc2cccc3ccccc23)c1 | 5 to 10
5 | C=Cc1ccccc1S(=O)(=O)NCCOc1cccc2ccccc12 | 10 to 15
6 | C=CS(=O)(=O)NCCOc1cccc2ccccc12 | 10 to 15
7 | C=CC(=O)NC[C@@H]1C[C@@H]2O[C@H](COCc3ccccc3)[C@@H](OCc3ccccc3)[C@@H]2O1 | 0.5 to 5
8 | C=Cc1ccc(S(=O)(=O)NCCOc2ccc3ccccc3c2)cc1 | 10 to 15
9 | C=Cc1ccccc1S(=O)(=O)NCCNc1cccc2ccccc12 | > 15
10 | C=Cc1ccc(S(=O)(=O)NCCNc2cccc3ccccc23)cc1 | 10 to 15
11 | C=CS(=O)(=O)NCCOc1ccc2ccccc2c1 | 10 to 15
12 | C=Cc1ccccc1S(=O)(=O)NCCOc1ccc2ccccc2c1 | 5 to 10
13 | C=Cc1cccc(S(=O)(=O)NCCOc2ccc3ccccc3c2)c1 | 10 to 15
14 | C=CS(=O)(=O)NCCNc1ccc2ccccc2c1 | 5 to 10
15 | C=CS(=O)(=O)NCCNc1cccc2ccccc12 | 10 to 15

The remaining lines, values ahead:

Row | Activity [%] | SMILES
16 | 10 to 15 | C=Cc1ccccc1S(=O)(=O)NC[C@H]1C[C@@H]2O[C@H](CO)[C@@H](OCc3ccccc3)[C@@H]2O1
17 | 10 to 15 | C=CS(=O)(=O)NC[C@@H]1C[C@@H]2O[C@H](COCc3ccccc3)[C@@H](OCc3ccccc3)[C@@H]2O1
18 | 10 to 15 | C=Cc1ccccc1S(=O)(=O)NC[C@H]1C[C@@H]2O[C@H](COCc3ccccc3)[C@@H](OCc3ccccc3)[C@@H]2O1
19 | 5 to 10 | C=Cc1cccc(S(=O)(=O)NC[C@H]2C[C@@H]3O[C@H](COCc4ccccc4)[C@@H](OCc4ccccc4)[C@@H]3O2)c1
20 | > 15 | C=Cc1ccccc1S(=O)(=O)NC[C@@H]1C[C@@H]2O[C@H](CO)[C@@H](OCc3ccccc3)[C@@H]2O1
21 | 5 to 10 | C=CS(=O)(=O)NC[C@H]1C[C@@H]2O[C@H](CO)[C@@H](OCc3ccccc3)[C@@H]2O1
22 | 0.5 to 5 | C=CC(=O)NC[C@H]1C[C@@H]2O[C@H](CO)[C@@H](OCc3ccccc3)[C@@H]2O1
23 | 5 to 10 | C=Cc1ccc(S(=O)(=O)NC[C@@H]2C[C@@H]3O[C@H](CO)[C@@H](OCc4ccccc4)[C@@H]3O2)cc1
24 | 10 to 15 | C=Cc1ccc(S(=O)(=O)NC[C@H]2C[C@@H]3O[C@H](CO)[C@@H](OCc4ccccc4)[C@@H]3O2)cc1
25 | 5 to 10 | C=Cc1cccc(S(=O)(=O)NC[C@H]2C[C@@H]3O[C@H](CO)[C@@H](OCc4ccccc4)[C@@H]3O2)c1
26 | 10 to 15 | C=Cc1ccc(S(=O)(=O)NC[C@@H]2C[C@@H]3O[C@H](COCc4ccccc4)[C@@H](OCc4ccccc4)[C@@H]3O2)cc1
27 | > 15 | C=Cc1ccc(S(=O)(=O)NC[C@H]2C[C@@H]3O[C@H](COCc4ccccc4)[C@@H](OCc4ccccc4)[C@@H]3O2)cc1
28 | 10 to 15 | C=Cc1cccc(S(=O)(=O)NC[C@@H]2C[C@@H]3O[C@H](CO)[C@@H](OCc4ccccc4)[C@@H]3O2)c1
29 | > 15 | C=Cc1cccc(S(=O)(=O)NC[C@@H]2C[C@@H]3O[C@H](COCc4ccccc4)[C@@H](OCc4ccccc4)[C@@H]3O2)c1
30 | 0.5 to 5 | C=CC(=O)NC[C@@H]1C[C@@H]2O[C@H](CO)[C@@H](OCc3ccccc3)[C@@H]2O1
31 | 10 to 15 | C=Cc1ccccc1S(=O)(=O)NC[C@@H]1C[C@@H]2O[C@H](COCc3ccccc3)[C@@H](OCc3ccccc3)[C@@H]2O1
32 | 10 to 15 | C=CS(=O)(=O)NC[C@H]1C[C@@H]2O[C@H](COCc3ccccc3)[C@@H](OCc3ccccc3)[C@@H]2O1

Reference: ChEMBL document CHEMBL3880441, “Irreversible covalent inhibitors of the GTPASE K-RAS G12C” (2014)
